Test results published in article PMC7343282, “Tissue Distribution of Several Series of Cationic Surfactants in Rainbow Trout (Oncorhynchus mykiss) Following Exposure via Water” (Environmental Science & Technology, 2020).
Values joined by “and” are separate entries in the source; they are usually repeats but may differ in a detail not shown here. Equal values may be shown once.

Tests used:
[1] = test system: rainbow trout (Oncorhynchus mykiss); assay: Surface area-normalized mucus-water and gill-water distribution coefficients; details: for Gill-water distribution coefficient (DG-W): from average concentrations in gills and water, calculated gill surface; for Mucus-water distribution coefficient (DMuc-W): from average concentrations in mucus and water
Procedure: For each mixture, the syringe pump was started in an aquarium containing no fish. After 16 h, to allow the concentrations to stabilize, 12 rainbow trout were added. After 7 d of exposure, the fish in the exposure aquaria as well as several unexposed (control) fish were sacrificed. Following stunning, blood was collected with a heparinized syringe from the caudal vein into a 2 mL Eppendorf tube. The fish were weighed and photographed, and the length was measured. The outer surface area of the fish was estimated from the fish weight according to O’Shea et al.[27] [drawing 1] 1
The gill surface area was estimated from the fish weight according to the equation specific for O. mykiss from a report by Hughes,[28] taken from ref ([29]) [drawing 2] 2
Because the mass of extracted mucus was not determined, the concentrations in mucus were normalized to the estimated fish’s total surface area (eq 1) excluding the head, which was not rinsed.
Surface area-normalized gill–water distribution coefficients (DG–W) were calculated from the average concentrations measured in gills and water, and a calculated gill surface based on rainbow trout specific scaling factors (eq 2). […] Unlike the skin, the gills were not rinsed with methanol, so the gill samples included gill mucus.

[2] = Tissue-blood distribution coefficients and volume of distribution; details: whole blood, pH 7.5, Estimated volume of distribution Vd, residues in muscle, liver and blood only
Procedure: (§1) Blood is the transport medium for contaminants in fish, and the tissue distribution is governed by tissue–blood distribution coefficients. […] Muscle–blood and liver–blood distribution coefficients (DMus–B and DL–B) were calculated as the quotients of the concentrations in the respective tissues and blood. This approach implies that there was an internal test chemical steady state in the fish.
(§2) The experimental data also allow estimation of the volume of distribution (Vd), an important parameter for extrapolating in vitro measures of e.g. metabolism to in vivo. In the context of quantitative in vitro–in vivo extrapolation for fish, Vd is defined as the quotient of the concentration in fish and the concentration in blood and describes the equivalent volume of blood that would contain the same amount of the chemical as 1 kg of fish.[40]Vd was estimated using the residues that had been clearly taken up systemically (i.e., those in muscle, liver and blood).

[3] = test system: rainbow trout (Oncorhynchus mykiss); assay: Apparent bioconcentration factor at end of 7-day exposure; assay type: in vivo
Procedure: Apparent BCFs (BCFapp) at the end of the 7-day exposure were calculated by dividing the surfactant body burden (including mucus) by the fish mass, and dividing this by the average measured concentration in water samples taken during the exposure phase. The BCFapp values ranged from 0.1 to 1260 (Table S18). Given the short exposure period, it is possible that the fish in this study had not approached steady state, in particular with respect to the distribution between water and internal tissues and between water and skin, and that the steady-state BCFs are higher. […] We note that some improvements in the methodology would be helpful, particularly with respect to the stability of the aqueous exposure concentration of the longest chain surfactants. Working with mixtures of analogue cationic surfactants allowed for consistent evaluation of differences in accumulation trends due to structural features.

[4] = test system: Pimephales promelas; parameters: method as in REACH dossiers (European Chemicals Agency); details: ref REACH dossiers (European Chemicals Agency); cited from earlier work
[5] = ref Timmer and Droge (2017); cited from earlier work
[6] = test system: rainbow trout (Oncorhynchus mykiss); assay: Tissue-blood distribution coefficients and volume of distribution; details: residues in muscle, liver and blood only
Procedure: as §1, §2

[7] = test system: Danio rerio; details: ref REACH dossiers (European Chemicals Agency); cited from earlier work
[8] = test system: carp (Cyprinus carpio); parameters: method as in ECHA Registration dossier for octadecylamine; details: after acidic methanol wash to remove the mucous, validity uncertain, ref ECHA Registration dossier for octadecylamine; cited from earlier work
[9] = end of 7-day exposure, body burden including mucus

SMILES	Gill-water distribution coefficient (DG-W) [1] [mLcm-2]	Mucus-water distribution coefficient (DMuc-W) [1] [mL cm-2]	Vd at 7 d ([2]; exposed fish #1) [L/kg]	Vd at 7 d ([2]; exposed fish #2) [L/kg]	Vd at 7 d ([2]; exposed fish #3) [L/kg]	Vd at 7 d ([2]; exposed fish #4) [L/kg]	Vd at 7 d ([2]; exposed fish #5) [L/kg]	Vd at 7 d ([2]; exposed fish #6) [L/kg]	Apparent bioconcentration factor (BCFapp) [3, 9] [L kg-1 wet weight]	Vd at 7 d ([2]; Mean) [L/kg]	Log KMW,C (membrane-water partition coefficient of the charged form) [5]	Estimated volume of distribution Vd ([6]; Mean) [L/kg]	Estimated volume of distribution Vd ([6]; exposed fish #1) [L/kg]	Estimated volume of distribution Vd ([6]; exposed fish #2) [L/kg]	Estimated volume of distribution Vd ([6]; exposed fish #3) [L/kg]	Estimated volume of distribution Vd ([6]; exposed fish #4) [L/kg]	Estimated volume of distribution Vd ([6]; exposed fish #5) [L/kg]	Estimated volume of distribution Vd ([6]; exposed fish #6) [L/kg]	further results
CCCCCCCCCCCCCN [P13, tridecylamine]	62	25	1.59	1.44	1.28	1.33	1.54	1.77	490	–	–	–	–	–	–	–	–	–	Vd at 7 d ([2]; rainbow trout (Oncorhynchus mykiss), other: exposure via water, Mean): 1.49 L/kg; 96h-LC50 [4]: 0.065 µg/mL
CCCCCCCCCN [P9, Nonylamine]	0.44	0.47	0.59	1.06	0.8	1.6	0.83	0.56	3.3	0.91	3.72	–	–	–	–	–	–	–	–
CCCCCCCCCCCCCN(C)C [T13, N,N-dimethyltridecylamine]	58	22	–	–	–	–	–	–	510	–	–	0.71	0.58	0.64	0.59	1.18	0.80	0.47	–
CCCCCCCCCN(C)C [T9, N,N-dimethylnonylamine]	0.30	0.29	–	–	–	–	–	–	5.4	–	3.07	0.49	0.53	0.45	0.41	0.51	0.52	0.52	–
CCCCCCCCCCCCN [P12, Dodecylamine]	28	16.3	1.13	1.31	1.07	1.87	1.56	0.79	–	1.29	5.58	–	–	–	–	–	–	–	Apparent bioconcentration factor (BCFapp) ([3]; rainbow trout (Oncorhynchus mykiss), in vivo, 7 d, pH 7.5): 230 L kg-1 wet weight; 96h-LC50 [7]: 0.54 µg/mL and 0.42 µg/mL
CCCCCCCCCCCCCCCCN [P16, hexadecylamine]	–	–	0.99	1.2	1.1	1.63	1.15	0.73	–	1.13	–	–	–	–	–	–	–	–	BCF [8]: 300 L/kg
